Assay results from ChEMBL document CHEMBL5108052, “Histone Deacetylase and Enhancer of Zeste Homologue 2 Dual Inhibitors Presenting a Synergistic Effect for the Treatment of Hematological Malignancies” (J Med Chem, 2022).

Key:
MV4-11 [1] = test: animal or person; assay type: functional, Homo sapiens; conditions: Mus musculus, MV4-11, 480 h, route ip, time 20 day, read-out: TGI
MV4-11 [2] = test: Induction of apoptosis in human MV4-11 cells assessed as late apoptotic cells at 0.4 uM measured after 48 hrs by Annexin V/7-AAD-dual staining based flow cytometric analysis (reference value: 1.1 %); assay type: functional
Histone deacetylase 11 = target: T1, Histone deacetylase 11 (Homo sapiens, UniProt Q96DB2); test: Inhibition of N-terminal Strep2-tagged recombinant His-tagged human HDAC11 (1 to 347 residues) using trifluoroacetyl lysine as substrate incubated for 2 hrs by Multimode microplate reader analysis
T1 sequence (Q96DB2 whole entry): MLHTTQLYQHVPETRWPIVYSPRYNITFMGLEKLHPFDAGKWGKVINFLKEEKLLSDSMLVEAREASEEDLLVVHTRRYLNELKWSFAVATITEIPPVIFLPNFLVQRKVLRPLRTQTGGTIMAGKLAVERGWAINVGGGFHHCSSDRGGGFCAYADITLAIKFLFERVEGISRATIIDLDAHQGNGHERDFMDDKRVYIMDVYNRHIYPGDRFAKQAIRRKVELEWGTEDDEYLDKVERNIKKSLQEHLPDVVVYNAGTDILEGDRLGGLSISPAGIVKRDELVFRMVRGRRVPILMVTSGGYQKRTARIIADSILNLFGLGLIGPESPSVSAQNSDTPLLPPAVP

L02 = test: Cytotoxicity against human L02 cells assessed as increase in combination index measured after 72 hrs by CCK-8 assay; assay type: toxicity, cell-based; conditions: l02, 72 h
Histone deacetylase 7 = target: T2, Histone deacetylase 7 (Homo sapiens, UniProt Q8WUI4); test: Inhibition of N-terminal GST-fusion tagged recombinant human HDAC7 (518 to 991 residues) expressed in insect cells using trifluoroacetyl lysine as substrate incubated for 2 hrs by Multimode microplate reader analysis
T2 sequence (Q8WUI4 whole entry): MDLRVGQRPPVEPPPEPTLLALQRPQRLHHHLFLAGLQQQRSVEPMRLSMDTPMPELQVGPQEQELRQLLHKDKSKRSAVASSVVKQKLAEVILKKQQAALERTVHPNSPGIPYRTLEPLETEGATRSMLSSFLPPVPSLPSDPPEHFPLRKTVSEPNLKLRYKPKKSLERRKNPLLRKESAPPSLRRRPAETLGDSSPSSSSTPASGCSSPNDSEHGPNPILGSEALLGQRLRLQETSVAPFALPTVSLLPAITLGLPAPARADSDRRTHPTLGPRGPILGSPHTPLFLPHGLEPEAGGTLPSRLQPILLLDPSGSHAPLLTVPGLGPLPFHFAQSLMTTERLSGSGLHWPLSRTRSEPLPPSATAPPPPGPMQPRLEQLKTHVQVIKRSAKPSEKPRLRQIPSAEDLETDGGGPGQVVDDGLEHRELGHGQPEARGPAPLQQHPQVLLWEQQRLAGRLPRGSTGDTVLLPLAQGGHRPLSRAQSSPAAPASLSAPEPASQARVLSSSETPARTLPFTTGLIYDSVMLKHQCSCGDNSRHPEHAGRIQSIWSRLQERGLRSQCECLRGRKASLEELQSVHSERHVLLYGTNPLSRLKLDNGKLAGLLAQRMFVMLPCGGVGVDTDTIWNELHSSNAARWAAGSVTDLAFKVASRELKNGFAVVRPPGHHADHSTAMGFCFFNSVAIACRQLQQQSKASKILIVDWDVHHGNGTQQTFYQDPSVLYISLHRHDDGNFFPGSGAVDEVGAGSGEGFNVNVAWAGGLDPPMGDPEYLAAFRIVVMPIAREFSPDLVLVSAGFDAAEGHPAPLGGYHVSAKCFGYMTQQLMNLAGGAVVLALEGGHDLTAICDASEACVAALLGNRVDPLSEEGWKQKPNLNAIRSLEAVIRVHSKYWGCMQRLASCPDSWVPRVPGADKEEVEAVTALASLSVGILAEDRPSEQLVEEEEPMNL

MV4-11 [3] = test: Induction of apoptosis in human MV4-11 cells assessed as necrotic cells at 0.1 uM measured after 48 hrs by Annexin V/7-AAD-dual staining based flow cytometric analysis (reference value: 0.3 %); assay type: functional
Histone deacetylase 9 = Histone deacetylase 9 (Homo sapiens, UniProt Q9UKV0); test: Inhibition of HDAC9 (unknown origin) incubated for 2 hrs by Multimode microplate reader analysis
[4] = target: T3, Polyamine deacetylase HDAC10 (Homo sapiens, UniProt Q969S8); test: Inhibition of HDAC10 (unknown origin) incubated for 2 hrs by Multimode microplate reader analysis
T3 sequence (Q969S8 whole entry): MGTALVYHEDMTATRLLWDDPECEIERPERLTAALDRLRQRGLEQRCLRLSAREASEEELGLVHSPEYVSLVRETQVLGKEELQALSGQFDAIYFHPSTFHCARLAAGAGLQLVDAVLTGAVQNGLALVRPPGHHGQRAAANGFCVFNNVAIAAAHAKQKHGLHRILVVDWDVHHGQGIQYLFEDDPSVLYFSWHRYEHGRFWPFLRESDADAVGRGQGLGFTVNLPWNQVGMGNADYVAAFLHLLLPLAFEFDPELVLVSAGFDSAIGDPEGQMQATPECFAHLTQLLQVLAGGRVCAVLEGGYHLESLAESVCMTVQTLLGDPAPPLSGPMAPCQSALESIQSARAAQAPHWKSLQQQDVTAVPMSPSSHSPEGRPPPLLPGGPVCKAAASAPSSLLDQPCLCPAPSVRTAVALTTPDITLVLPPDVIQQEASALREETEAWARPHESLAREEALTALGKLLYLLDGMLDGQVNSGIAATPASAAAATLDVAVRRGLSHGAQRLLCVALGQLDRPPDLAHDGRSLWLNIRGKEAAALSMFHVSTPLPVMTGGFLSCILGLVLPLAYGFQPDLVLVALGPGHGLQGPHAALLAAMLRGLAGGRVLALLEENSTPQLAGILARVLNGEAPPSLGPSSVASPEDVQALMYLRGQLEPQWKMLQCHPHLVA

MV4-11 [5] = test: Induction of mitochondrial membrane potential in human MV4-11 cells assessed as reduction in red fluorescence intensity at 0.4 uM measured after 48 hrs by JC1 staining-based flow cytometry analysis (reference value: 98.8%); assay type: functional; design: scale not given: the % may be the effect or the level left
MV4-11 [6] = test: Induction of mitochondrial membrane potential in human MV4-11 cells assessed as reduction in red fluorescence intensity at 0.1 uM measured after 48 hrs by JC1 staining-based flow cytometry analysis (reference value: 98.8%); assay type: functional; design: scale not given: the % may be the effect or the level left
[7] = Binding affinity to recombinant PRC2 complex (unknown origin) incubated for 90 seconds by surface plasmon resonance assay; design: species or system Homo sapiens
MV4-11 [8] = test: Induction of apoptosis in human MV4-11 cells assessed as late apoptotic cells at 0.2 uM measured after 48 hrs by Annexin V/7-AAD-dual staining based flow cytometric analysis (reference value: 1.1 %); assay type: functional

Histone deacetylase 9, sequence (Q9UKV0 whole entry): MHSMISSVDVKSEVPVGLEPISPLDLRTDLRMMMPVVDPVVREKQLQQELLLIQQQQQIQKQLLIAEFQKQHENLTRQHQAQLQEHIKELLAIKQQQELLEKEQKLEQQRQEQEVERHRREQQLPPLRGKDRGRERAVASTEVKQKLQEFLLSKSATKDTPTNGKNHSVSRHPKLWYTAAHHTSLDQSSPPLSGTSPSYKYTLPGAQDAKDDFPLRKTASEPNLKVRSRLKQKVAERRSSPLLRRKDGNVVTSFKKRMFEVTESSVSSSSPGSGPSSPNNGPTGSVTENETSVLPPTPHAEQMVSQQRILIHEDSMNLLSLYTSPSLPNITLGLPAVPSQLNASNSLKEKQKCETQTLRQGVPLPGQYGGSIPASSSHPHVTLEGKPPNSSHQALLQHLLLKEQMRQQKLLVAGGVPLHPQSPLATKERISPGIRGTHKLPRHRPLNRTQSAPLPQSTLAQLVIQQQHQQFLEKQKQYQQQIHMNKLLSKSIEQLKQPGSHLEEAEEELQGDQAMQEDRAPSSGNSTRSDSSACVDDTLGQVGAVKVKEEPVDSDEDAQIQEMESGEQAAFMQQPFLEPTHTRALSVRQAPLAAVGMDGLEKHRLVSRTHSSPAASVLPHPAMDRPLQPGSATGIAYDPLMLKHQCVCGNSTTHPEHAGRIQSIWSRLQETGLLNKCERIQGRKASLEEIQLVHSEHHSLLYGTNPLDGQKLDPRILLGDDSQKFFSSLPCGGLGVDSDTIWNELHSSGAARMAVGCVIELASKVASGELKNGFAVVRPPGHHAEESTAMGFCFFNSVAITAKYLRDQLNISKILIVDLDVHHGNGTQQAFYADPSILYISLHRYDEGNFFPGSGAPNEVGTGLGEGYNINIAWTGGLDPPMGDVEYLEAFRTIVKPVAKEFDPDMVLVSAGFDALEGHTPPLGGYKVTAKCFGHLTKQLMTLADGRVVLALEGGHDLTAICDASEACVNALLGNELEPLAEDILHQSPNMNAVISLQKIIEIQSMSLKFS

Structure (SMILES): Cc1cc(C)c(CNC(=O)c2cc(-c3ccc(N4CCN(c5ncc(C(=O)NO)cn5)CC4)nc3)cc3c2cnn3C(C)C)c(=O)[nH]1
- inhibition in vivo at 100 mg/kg (MV4-11 [1]): 82%
- Activity (MV4-11 [2]): 17.1%
- IC50 (Histone deacetylase 11): 2560 nM
- Activity (L02): Toxic
- IC50 (Histone deacetylase 7): 8.19 µM
- Activity (MV4-11 [3]): 1.9%
- IC50 (Histone deacetylase 9): 7.05 µM
- IC50 [4]: 1470 nM
- Activity (MV4-11 [5]): 72%
- Activity (MV4-11 [6]): 92.9%
- Kd [7]: 39 nM
- Activity (MV4-11 [8]): 11.1%
